In patent US12577257B2, “Heterocyclic compounds” (Hoffmann-La Roche Inc., priority 2018, dated 2026):

Each molecule was assayed against T1, MAGL (Homo sapiens, UniProt Q99685) (assay: 2-AG assay: MAGL hydrolysis of 2-arachidonoylglycerol to arachidonic acid, followed by mass spectrometry). Settings: footnote [a]: measured in 2-AG assay.
T1 sequence (Q99685 1-303): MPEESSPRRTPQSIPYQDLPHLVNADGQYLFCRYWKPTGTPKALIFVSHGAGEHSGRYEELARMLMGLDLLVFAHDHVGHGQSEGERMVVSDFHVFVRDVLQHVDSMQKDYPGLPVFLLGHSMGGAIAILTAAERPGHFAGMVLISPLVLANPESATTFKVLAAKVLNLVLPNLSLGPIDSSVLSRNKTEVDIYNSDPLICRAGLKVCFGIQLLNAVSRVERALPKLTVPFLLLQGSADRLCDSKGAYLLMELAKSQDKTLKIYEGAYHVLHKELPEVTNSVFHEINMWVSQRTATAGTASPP
Type: biochemical
Procedure: Alternatively, compounds were profiled for MAGL inhibitory activity by determining the enzymatic activity by following the hydrolysis of the natural substrate 2-arachidonoylglycerol resulting in arachidonic acid, which can be followed by mass spectrometry. This assay is hereinafter abbreviated “2-AG assay”.
The 2-AG assay was carried out in 384 well assay plates (PP, Greiner Cat #784201) in a total volume of 20 μL. Compound dilutions were made in 100% DMSO (VWR Chemicals 23500.297) in a polypropylene plate in 3-fold dilution steps to give a final concentration range in the assay from 12.5 μM to […]. 0.25 μL compound dilutions (100% DMSO) were added to 9 μL MAGL in assay buffer (50 mM TRIS (GIBCO, 15567-027), 1 mM EDTA (Fluka, 03690-100 ml), 0.01% (v/v) Tween. After shaking, the plate was incubated for 15 min at RT. To start the reaction, 10 μL 2-arachidonoylglycerol in assay buffer was added. The final concentrations in the assay was […] and 8 μM 2-arachidonoylglycerol. After shaking and 30 min incubation at RT, the reaction was quenched by the addition of 40 μL of acetonitrile containing 4 μM of d8-arachidonic acid. The amount of arachidonic acid was traced by an online SPE system (Agilent Rapidfire) coupled to a triple quadrupole mass spectrometer (Agilent 6460). A C18 SPE cartridge (G9205A) was used in an acetonitrile/water liquid setup. The mass spectrometer was operated in negative electrospray mode following the mass transitions 303.1→259.1 for arachidonic acid and 311.1→267.0 for d8-arachidonic acid. The activity of the compounds was calculated based on the ratio of intensities [arachidonic acid/d8-arachidonic acid].
In the case of O=C1CO[C@H]2CCN(C(=O)N3CCC4(CC3)C[C@@H](NS(=O)(=O)c3ccccc3)CO4)C[C@H]2N1 (mixture of isomers) [Example 18, rac-(4aR,8aS)—N—((R)-8-(3-oxooctahydro-2H-pyrido[4,3-b][1,4]oxazine-6-carbonyl)-1-oxa-8-azaspiro[4.5]decan-3-yl)benzenesulfonamide], the IC50 is reported as 0.316 µM. For O=C1CO[C@H]2CCN(C(=O)N3CCC4(CC3)C[C@H](NS(=O)(=O)c3ccccc3)CO4)C[C@H]2N1 (mixture of isomers) [Example 19, rac-(4aR,8aS)-N-((S)-8-(3-oxooctahydro-2H-pyrido[4,3-b][1,4]oxazine-6-carbonyl)-1-oxa-8-azaspiro[4.5]decan-3-yl)benzenesulfonamide], the IC50 was 0.821 µM. Work on O=C1CO[C@H]2CCN(C(=O)N3CCC4(CC3)CC(NCc3ccc(F)cc3Cl)CO4)C[C@H]2N1 (mixture of isomers) [Example 38, rac-(4aR,8aS)-6-(3-((2-Chloro-4-fluorobenzyl)amino)-1-oxa-8-azaspiro[4.5]decane-8-carbonyl)hexahydro-2H-pyrido[4,3-b][1,4]oxazin-3(4H)-one] yielded an IC50 of 0.416 µM. CN(Cc1ccc(F)cc1Cl)C1COC2(CCN(C(=O)N3CC[C@@H]4OCC(=O)N[C@@H]4C3)CC2)C1 (single isomer, unassigned) [Example 33] gave an IC50 of 0.129 µM. Molecule CN(Cc1ccc(F)cc1Cl)C1COC2(CCN(C(=O)N3CC[C@@H]4OCC(=O)N[C@@H]4C3)CC2)C1 (single isomer, unassigned) [Example 34] has an IC50 of 0.133 µM. With O=C1CO[C@H]2CCN(C(=O)N3CCC4(CC3)CC(NCc3ccc(F)cc3Cl)CO4)C[C@H]2N1 (single isomer, unassigned) [Example 35] the IC50 was 0.182 µM. With O=C1CO[C@H]2CCN(C(=O)N3CCC4(CC3)CC(NCc3ccc(F)cc3Cl)CO4)C[C@H]2N1 (single isomer, unassigned) [Example 36] the IC50 was 0.279 µM. With O=C1CO[C@H]2CCN(C(=O)N3CCC4(CC3)CC(NS(=O)(=O)c3ccc(C(F)(F)F)cc3)CO4)C[C@H]2N1 (stereo in doubt) [Example 29, N-((S)-8-((4aR,8aS)-3-Oxooctahydro-2H-pyrido[4,3-b][1,4]oxazine-6-carbonyl)-1-oxa-8-azaspiro[4.5]decan-3-yl)-4-(trifluoromethyl)benzenesulfonamide] the IC50 was 0.0475 µM. In the case of O=C1CO[C@H]2CCN(C(=O)N3CCC4(CC3)CC(NS(=O)(=O)c3ccc(F)cc3Cl)CO4)C[C@H]2N1 (stereo in doubt) [Example 31, 2-Chloro-4-fluoro-N-((S)-8-((4aR,8aS)-3-oxooctahydro-2H-pyrido[4,3-b][1,4]oxazine-6-carbonyl)-1-oxa-8-azaspiro[4.5]decan-3-yl)benzenesulfonamide], the IC50 is reported as 0.0513 µM. O=C1CO[C@H]2CCN(C(=O)N3CCC4(CC3)CC(NS(=O)(=O)c3cccc(C(F)(F)F)c3)CO4)C[C@H]2N1 (stereo in doubt) [Example 32, N-((S)-8-((4aR,8aS)-3-Oxooctahydro-2H-pyrido[4,3-b][1,4]oxazine-6-carbonyl)-1-oxa-8-azaspiro[4.5]decan-3-yl)-3-(trifluoromethyl)benzenesulfonamide] showed an IC50 of 0.124 µM. O=C1CO[C@H]2CCN(C(=O)N3CC4(CC(Oc5ccc(F)cc5Cl)C4)C3)C[C@H]2N1 (stereo in doubt) [Example 41, (4aR,8aS)-6-(6-(2-Chloro-4-fluorophenoxy)-2-azaspiro[3.3]heptane-2-carbonyl)hexahydro-2H-pyrido[4,3-b][1,4]oxazin-3(4H)-one] gave an IC50 of 0.466 µM. Work on O=C1CO[C@H]2CCN(C(=O)N3CC4(CC(Oc5ccc(F)cc5Cl)C4)C3)C[C@H]2N1 [Example 1, (4aR,8aS)-6-(6-(2-Chloro-4-fluorophenoxy)-2-azaspiro[3.3]heptane-2-carbonyl)hexahydro-2H-pyrido[4,3-b][1,4]oxazin-3(4H)-one] yielded an IC50 of 0.0045 µM. With O=C1CO[C@H]2CCN(C(=O)N3CC4(CC(Oc5ccc(C(F)(F)F)cc5)C4)C3)C[C@H]2N1 [Example 2, (4aR,8aS)-6-(6-(4-(Trifluoromethyl)phenoxy)-2-azaspiro[3.3]heptane-2-carbonyl)hexahydro-2H-pyrido[4,3-b][1,4]oxazin-3(4H)-one] the IC50 was 0.005 µM. O=C1CO[C@H]2CCN(C(=O)N3CC4(CC(Oc5ccc(C(F)(F)F)cc5F)C4)C3)C[C@H]2N1 [Example 3, (4aR,8aS)-6-(6-(2-Fluoro-4-(trifluoromethyl)phenoxy)-2-azaspiro[3.3]heptane-2-carbonyl)hexahydro-2H-pyrido[4,3-b][1,4]oxazin-3(4H)-one] was tested, and the IC50 was 0.0023 µM. O=C1CO[C@H]2CCN(C(=O)N3CC4(CC(Oc5ccc(OC(F)(F)F)cc5F)C4)C3)C[C@H]2N1 [Example 4, (4aR,8aS)-6-(6-(2-Fluoro-4-(trifluoromethoxy)phenoxy)-2-azaspiro[3.3]heptane-2-carbonyl)hexahydro-2H-pyrido[4,3-b][1,4]oxazin-3(4H)-one] gave an IC50 of 0.003 µM. O=C1CO[C@H]2CCN(C(=O)N3CC4(CC(Oc5ccc(OC(F)(F)F)cc5Cl)C4)C3)C[C@H]2N1 [Example 5, (4aR,8aS)-6-(6-(2-Chloro-4-(trifluoromethoxy)phenoxy)-2-azaspiro[3.3]heptane-2-carbonyl)hexahydro-2H-pyrido[4,3-b][1,4]oxazin-3(4H)-one] gave an IC50 of 0.0006 µM. COc1ccc(C(F)(F)F)cc1OC1CC2(C1)CN(C(=O)N1CC[C@@H]3OCC(=O)N[C@@H]3C1)C2 [Example 6, (4aR,8aS)-6-(6-(2-Methoxy-5-(trifluoromethyl)phenoxy)-2-azaspiro[3.3]heptane-2-carbonyl)hexahydro-2H-pyrido[4,3-b][1,4]oxazin-3(4H)-one] was tested, and the IC50 was 0.0028 µM. O=C1CO[C@H]2CCN(C(=O)N3CC4(CC(Oc5ccc(Cl)cc5C(F)(F)F)C4)C3)C[C@H]2N1 [Example 7, (4aR,8aS)-6-(6-(4-Chloro-2-(trifluoromethyl)phenoxy)-2-azaspiro[3.3]heptane-2-carbonyl)hexahydro-2H-pyrido[4,3-b][1,4]oxazin-3(4H)-one] showed an IC50 of 0.0085 µM. O=C1CO[C@H]2CCN(C(=O)N3CC4(CC(Oc5ccc(F)cc5F)C4)C3)C[C@H]2N1 [Example 8, (4aR,8aS)-6-(6-(2,4-Difluorophenoxy)-2-azaspiro[3.3]heptane-2-carbonyl)hexahydro-2H-pyrido[4,3-b][1,4]oxazin-3(4H)-one] showed an IC50 of 0.0107 µM. Work on O=C1CO[C@H]2CCN(C(=O)N3CC4(CC(Oc5cc(F)cc(C(F)(F)F)c5)C4)C3)C[C@H]2N1 [Example 9, (4aR,8aS)-6-(6-(3-Fluoro-5-(trifluoromethyl)phenoxy)-2-azaspiro[3.3]heptane-2-carbonyl)hexahydro-2H-pyrido[4,3-b][1,4]oxazin-3(4H)-one] yielded an IC50 of 0.0125 µM. O=C1CO[C@H]2CCN(C(=O)N3CCC4(CC3)CC(Oc3ccc(C(F)(F)F)cc3F)C4)C[C@H]2N1 [Example 10, (4aR,8aS)-6-(2-(2-Fluoro-4-(trifluoromethyl)phenoxy)-7-azaspiro[3.5]nonane-7-carbonyl)hexahydro-2H-pyrido[4,3-b][1,4]oxazin-3(4)-one] showed an IC50 of 0.0008 µM. In the case of O=C1CO[C@H]2CCN(C(=O)N3CC4(CN(Cc5ccc(F)cc5Cl)C4)C3)C[C@H]2N1 [Example 11, (4aR,8aS)-6-(6-(2-Chloro-4-fluorobenzyl)-2,6-diazaspiro[3.3]heptane-2-carbonyl)hexahydro-2H-pyrido[4,3-b][1,4]oxazin-3(4H)-one], the IC50 is reported as 0.0198 µM.
